Patent US20010014680A1 (priority 1998, published 2001)
Where a name gives a salt, the structure may show the parent alone.

What was measured:
[1] = target: T1, human 5HT1A receptor (Homo sapiens, UniProt P08908); test: 5-HT1A Receptor Intrinsic Activity Assay (cAMP); type: cell-based; conditions: reversal of forskolin (1 μM) stimulated cAMP in CHO cells stably transfected with human 5-HT1A receptor; RIA
T1 construct: expressed in transfected cells; host or cells: CHO cells, stably transfected
T1 sequence (P08908 1-422): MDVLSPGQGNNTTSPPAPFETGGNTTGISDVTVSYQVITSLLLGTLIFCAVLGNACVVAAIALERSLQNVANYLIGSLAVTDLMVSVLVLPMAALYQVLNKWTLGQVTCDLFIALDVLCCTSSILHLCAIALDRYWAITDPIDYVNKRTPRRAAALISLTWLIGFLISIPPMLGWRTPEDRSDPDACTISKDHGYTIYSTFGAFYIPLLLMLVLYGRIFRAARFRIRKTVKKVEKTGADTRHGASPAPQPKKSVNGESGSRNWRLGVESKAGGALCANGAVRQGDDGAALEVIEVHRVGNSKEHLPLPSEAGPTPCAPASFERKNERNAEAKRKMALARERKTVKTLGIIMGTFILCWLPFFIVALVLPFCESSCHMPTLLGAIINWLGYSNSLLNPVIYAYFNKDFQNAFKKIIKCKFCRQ
Protocol: 5-HT1A Receptor Intrinsic Activity Assay
The intrinsic activity of compounds of the present invention was established by testing the claimed compounds ability to reverse the stimulation of cyclic adenosinemonophosphate (cAMP) in CHO cells stably transfected with the human 5-HT1A receptor.
Stably transfected CHO cells were grown in DMEM containing 10% heat inactivated FBS and non-essential amino acids. The cells are plated at a density of […] per well in a 24 well plate and incubated for 2 days in a CO2 incubator. On the second day, the media is replaced with 0.5 mL treatment buffer (DMEM + 25 mM HEPES, 5 mM theophylline, 10 μM pargyline) and incubated for 10 minutes at 37° C. Wells are treated with forskolin (1 μM final concentration) followed immediately by the test compound (0.1 and 1 μM for initial screen) and incubated for an additional 10 minutes at 37° C. The reaction is terminated by removal of the media and addition of 0.5 mL ice cold assay buffer (supplied in the RIA kit). Plates are stored at −20° C. prior to assessment of cAMP formation by RIA. EC50 values are determined for the active test compounds. Compounds shown to have no agonist activities (Emax=0%) are further analyzed for their ability to reverse agonist induced activity. In separate experiments, 6 concentrations of antagonist are preincubated for 20 minutes prior to the addition of agonist and forskolin. Cells are harvested as described above. The cAMP kit is supplied by Amersham and the RIA is performed as per kit instructions, and calculations of IC50 performed by GraphPad Prism.

[2] = target: T1, human 5HT1A receptor; test: 5-HT1A Receptor Binding Assay ([3H] 8-OH-DPAT displacement); conditions: displacement of [3H] 8-OH-DPAT (1.5 nM) in CHO cells stably transfected with human 5HT1A receptor
Protocol: 5-HT1A Receptor Binding Assay
High affinity for the serotonin 5-HT1A receptor was established by testing the claimed compound's ability to displace [^3H] 8-OH-DPAT binding in CHO cells stably transfected with the human 5HT1A receptor. Stably transfected CHO cells are grown in DMEM containing 10% heat inactivated FBS and non-essential amino acids. Cells are scraped off the plate, transferred to centrifuge tubes, and washed twice by centrifugation (2000 rpm for 10 min., 4° C.) in buffer (50 mM Tris pH 7.5). The resulting pellets are aliquoted and placed at −80° C. On the day of assay, the cells are thawed on ice and resuspended in buffer. The binding assay is performed in a 96 well microtiter plate in a total volume of 250 μL. Non-specific binding is determined in the presence of […], final ligand concentration is 1.5 nM. Following a 30 minute incubation at room temperature, the reaction is terminated by the addition of ice cold buffer and rapid filtration through a GF/B filter presoaked for 30 minutes in 0.5% PEI. Compounds are initially tested in a single point assay to determine percent inhibition at […], and Ki values are determined for the active compounds.

Q: Which melting point does the source give for `O=C(C1CCNCC1)N1CCN(c2cccc3[nH]ccc23)CC1` (as salt: HCl) [Example 11, [4-(1H-Indol-4-yl)-piperazin-1-yl]-piperidin-4-yl-methanone] here?
A: > 240 °C

Q: With `COc1ccccc1N1CCN(CC2CCNCC2)CC1` [Example 1, 1-(2-Methoxy-phenyl)-4-piperidin-4-ylmethyl-piperazine] as the compound, how does the Emax [1] read?
A: 0%

Q: With `COc1ccccc1N1CCN(CC2CCN(CC3CCCCC3)CC2)CC1` [Example 3] as the compound, how does the Ki [2] read?
A: 8.4 nM

Q: And the Emax [1]?
A: 89%

Q: Which results are given for `COc1ccccc1N1CCN(CC2CCCNC2)CC1` (centres unmarked) [Example 6, 1-(2-Methoxy-phenyl)-4-piperidin-3-ylmethyl-piperazine]?
A: Ki [2]: 2 nM; Emax [1]: 0%

Q: What does the source list for `COc1ccccc1N1CCN(CC2CCCN(Cc3ccccc3)C2)CC1` (centres unmarked) [Example 9, 1-(1-Benzyl-piperidin-3-ylmethyl)-4-(2-methoxy-phenyl)-piperazine]?
A: Ki [2]: 14 nM; Emax [1]: 79%
